In ChEMBL document CHEMBL5113462, “Synthesis and evaluation of inhibitors of Mycobacterium tuberculosis UGM using bioisosteric replacement” (Bioorg Med Chem, 2022) one finds inhibition and Kd data, which are given here for eleven compounds.

Assay [1] has as its target UDP-galactopyranose mutase (Klebsiella pneumoniae) (UniProt Q48485). The experiment in a line: Inhibition of Klebsiella pneumoniae UGM expressed in Escherichia coli BL21(DE3) at 500 uM by Fluorescence polarization assay relative to control. (In general: In fluorescence polarisation assays a small probe gives low polarisation when free and higher when bound to something large.)

In assay [2] the target is T1, UDP-galactopyranose mutase (Mycobacterium tuberculosis, UniProt P9WIQ1). Nature of the assay: Inhibition of Mycobacterium tuberculosis UGM expressed in Escherichia coli BL21(DE3) assessed as dissociation constant by fluorescence polarization assay.
T1 sequence (P9WIQ1 whole entry): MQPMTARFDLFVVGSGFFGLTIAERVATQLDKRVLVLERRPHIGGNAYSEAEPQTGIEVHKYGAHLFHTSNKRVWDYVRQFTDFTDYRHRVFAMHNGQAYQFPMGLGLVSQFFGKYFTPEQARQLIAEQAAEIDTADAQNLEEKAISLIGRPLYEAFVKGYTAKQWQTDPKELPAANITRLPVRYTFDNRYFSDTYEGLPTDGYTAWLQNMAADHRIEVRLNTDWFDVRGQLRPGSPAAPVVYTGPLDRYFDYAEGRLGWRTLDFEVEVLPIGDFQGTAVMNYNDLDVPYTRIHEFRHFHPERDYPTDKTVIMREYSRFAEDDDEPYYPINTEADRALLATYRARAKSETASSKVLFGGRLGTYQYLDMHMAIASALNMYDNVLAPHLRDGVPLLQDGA
In assay [3] the target is UDP-galactopyranose mutase (Mycobacterium tuberculosis) (UniProt P9WIQ1). The experiment in a line: Inhibition of Mycobacterium tuberculosis UGM expressed in Escherichia coli BL21(DE3) at 500 uM by Fluorescence polarization assay relative to control.
UDP-galactopyranose mutase (Mycobacterium tuberculosis), sequence (P9WIQ1 whole entry, looked up): as the sequence (P9WIQ1 whole entry) above
Assay [4] deals with UDP-galactopyranose mutase (Klebsiella pneumoniae, UniProt Q48485). The experiment in a line: Inhibition of Klebsiella pneumoniae UGM expressed in Escherichia coli BL21(DE3) assessed as dissociation constant by fluorescence polarization assay.
UDP-galactopyranose mutase (Klebsiella pneumoniae, UniProt Q48485), sequence (Q48485 whole entry): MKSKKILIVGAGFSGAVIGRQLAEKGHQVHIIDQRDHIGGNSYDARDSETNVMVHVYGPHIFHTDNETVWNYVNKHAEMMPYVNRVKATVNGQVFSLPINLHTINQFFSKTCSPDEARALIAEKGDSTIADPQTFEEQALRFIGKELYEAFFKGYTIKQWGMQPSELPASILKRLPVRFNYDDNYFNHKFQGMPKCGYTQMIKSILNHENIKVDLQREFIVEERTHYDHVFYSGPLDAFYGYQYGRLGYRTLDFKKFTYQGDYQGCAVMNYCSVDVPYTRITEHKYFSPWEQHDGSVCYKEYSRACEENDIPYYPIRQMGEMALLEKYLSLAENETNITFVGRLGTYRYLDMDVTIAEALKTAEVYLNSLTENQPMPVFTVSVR
Assay [5] deals with UDP-galactopyranose mutase (Mycobacterium tuberculosis) (UniProt P9WIQ1). Nature of the assay: Inhibition of Mycobacterium tuberculosis UGM expressed in Escherichia coli BL21(DE3) assessed as formation of UDP-galactopyranose at 500 uM preincubated for 5 min followed by substrate addition and measured after 1 to 3 mins using UDP-galactofuranose as substrate by HPLC analysis relative to control. As to conditions: time 6-8 min.

Assay [6] addresses T1, UDP-galactopyranose mutase. The experiment in a line: Inhibition of Mycobacterium tuberculosis UGM expressed in Escherichia coli BL21(DE3) assessed as dissociation constant by SPR analysis.

Each structure is given as a SMILES string. Some results are limits rather than exact numbers.

UDP-galactopyranose mutase (Klebsiella pneumoniae), sequence (Q48485 whole entry): as above

By inhibition is commonly meant how much of the control response was suppressed. One may read the Kd as the equilibrium constant for the complex coming apart. On to `O=C(/C=C/c1ccc(O)c(O)c1)O[C@H](Cc1ccc(O)c(O)c1)C(=O)O` [ROSMARINIC ACID], for which the inhibition in assay [1] is 46%; in assay [3], 48%. The figures for the Kd in assay [2] and in assay [4] were 653 µM and 69 µM, respectively.

`O=C(/C=C/c1ccccc1)N[C@@H](Cc1ccc(Cl)cc1)C(=O)O`: the inhibition in assay [1] worked out at 41%; in assay [3], 49%; in assay [5] it was 63.3%. Further, the Kd is 358 µM in assay [2] and 43 µM in assay [4].

The compound `O=C(/C=C/c1ccccc1)N[C@@H](Cc1ccc(O)cc1)C(=O)O` came in with an inhibition in assay [3] of 29%.

Consider `O=c1ccn([C@@H]2O[C@H](COP(=O)(O)OP(=O)(O)O)[C@@H](O)[C@H]2O)c(=O)[nH]1` [URIDINE_DIPHOSPHATE], for which the inhibition was found to be 63% in assay [1], 86% in assay [3] and 47.6% in assay [5]. Moreover, the results for the Kd in assay [2] and in assay [4] were 35 µM and 54 µM, respectively.

As for `O=C(/C=C/c1ccccc1)N[C@@H](Cc1ccc(F)cc1)C(=O)O`, the results for the inhibition in assay [1] and in assay [3] were 58% and 46%, respectively. The Kd amounted to 948 µM in assay [2] and 156 µM in assay [4].

Turning to `O=C(/C=C/c1ccccc1)N[C@@H](Cc1ccc(I)cc1)C(=O)O`, the inhibition came to 60% in assay [1], 77% in assay [3] and 54.6% in assay [5]. Also, the Kd in assay [2] was 197 µM; in assay [4], 17 µM.

Take `O=C(/C=C/c1ccccc1)N[C@@H](Cc1ccccc1)C(=O)O`: the inhibition turned out to be 59% in assay [1] and 45% in assay [3]. The Kd in assay [2] and in assay [4] was greater than 1000 µM each time.

In the case of `COc1cc(/C=C/C(=O)N[C@@H](Cc2ccc(O)c(O)c2)C(=O)O)ccc1O`, in assay [3], the inhibition amounted to 19%.

On to `O=C(/C=C/c1ccc(O)c(O)c1)N[C@@H](Cc1ccc(O)cc1)C(=O)O`, for which the inhibition in assay [3] was 18%.

For `O=C(/C=C/c1ccccc1)N[C@@H](Cc1ccc(Br)cc1)C(=O)O`, the figures for the inhibition in assay [1], in assay [3] and in assay [5] were 59%, 82% and 87%, respectively. Moreover, the Kd in assay [6] was 105 µM; in assay [2], 63 µM; in assay [4], 58 µM.

Regarding `O=C(/C=C/c1ccccc1)N[C@@H](Cc1ccc([N+](=O)[O-])cc1)C(=O)O`, the values for the inhibition in assay [1], in assay [3] and in assay [5] were 59%, 62% and 35.2%, respectively. In addition, the Kd in assay [2] amounted to 401 µM; in assay [4], 231 µM.
